# Assay results: patent US9170266B2, “Fluorescent probe” (THE UNIVERSITY OF TOKYO, priority 2011, dated 2015)
# Read-outs that look alike come from different tables or passages of the source.
# Legend:
# [1] = Optical characteristics in 0.1 M phosphate buffer containing 1% DMSO, Table 3; format: physicochemical; conditions: for λmax,fl: 0.1 M phosphate buffer (pH 9) containing 1% DMSO; for Φfl: 0.1 M phosphate buffer (pH 9), standard 2-Me TokyoMagenta (0.42); for λmax,abs pH 3 / λmax,abs pH 9: 0.1 M phosphate buffer containing 1% DMSO
# Procedure: The measurement was performed in a 0.1 M phosphate buffer (pH 9) containing 1% DMSO. pKa was obtained from the absorbance measured in a phosphate buffer (pH 9) by monophasic or biphasic curve fitting. The quantum yield was obtained by using the quantum yield of 2-Me TokyoMagenta (0.42) in a 0.1 M phosphate buffer (pH 9) as the standard.
# [2] = Fluorescence quantum yield in sodium phosphate buffer (pH 9), rhodamine B as fluorescence standard; format: physicochemical; conditions: standard rhodamine B (Φfl=0.65) in ethanol
# Procedure: (§1) Relationship between the fluorescence quantum yield and the oxidation potential of the benzene ring moiety of 2-Me TokyoMagenta synthesized in Example 1 mentioned above, as well as 2,4-DiMe TokyoMagenta, 2,5-DiMe TokyoMagenta, 2-OMe TokyoMagenta, 2-OMe-5-Me TokyoMagenta, and 2,5-OMe TokyoMagenta of (a) to (e) mentioned above was investigated. The fluorescence quantum yield was measured in a sodium phosphate buffer (pH 9) by using rhodamine B (Φfl=0.65) in ethanol as a control for fluorescence standard, and the oxidation potential was indicated with respect to a saturated calomel electrode (SCE) as a control. The dots plotted in FIG. 1 indicate the results of 2,4-DiMe TokyoMagenta, 2,5-DiMe TokyoMagenta, 2-OMe TokyoMagenta, 2-OMe-5-Me TokyoMagenta, and 2,5-OMe TokyoMagenta from the right, respectively. As clearly seen from the results shown in Table 1 and FIG. 1, the fluorescence quantum yields of the compounds changed depending on the oxidation potentials of the benzene ring moiety.
# The fluorescence quantum yield was measured in a sodium phosphate buffer (pH 9) by using rhodamine B (Φfl=0.65) in ethanol as a control for fluorescence standard.
# [3] = Oxidation potential of the benzene ring moiety; format: physicochemical; conditions: vs saturated calomel electrode (SCE)
# Procedure: as §1
# [4] = Evaluation of calcium fluorescent probes: absorption and fluorescence spectra at various free Ca2+ concentrations; format: binding; conditions: for Φfl in 0 μM free [Ca2+] buffer / λabs in 0 μM free [Ca2+] buffer / λfl in 0 μM free [Ca2+] buffer / Φfl in 39 μM free [Ca2+] buffer / λabs in 39 μM free [Ca2+] buffer / λfl in 39 μM free [Ca2+] buffer / Kd: 30 mM MOPS buffer pH 7.2, 100 mM KCl, 10 mM EGTA, 22°C; for Kd: Ca2+; for Change of absorption spectra with Ca2+ ion concentration: free Ca2+ 0 to 39 μM; for Change of absorption spectra with Ca2+ ion concentration / Change of fluorescence intensity with Ca2+ ion concentration: pH 7.2, 22°C; for Change of fluorescence intensity with Ca2+ ion concentration: free Ca2+ 0 to 35/39 μM
# Procedure: Fluorescence of Calcium TokyoMagenta obtained in Example 3 was measured in the presence of calcium ions of various concentrations. Free calcium ions at various concentrations (0, 0.017, 0.038, 0.065, 0.100, 0.150, 0.225, 0.351, 0.602, 1.35, and 35 μM) was added to the solution of Calcium TokyoMagenta (1 μM) dissolved in a 30 mM MOPS buffer (pH 7.2) containing 100 mM potassium chloride and 10 mM EGTA, and the fluorescence spectrum was measured at 22° C. (excitation wavelength: 550 nm).
# The fluorescent probes prepared in Examples 13 and 14 were evaluated. Ca^2+-dependent changes of absorption spectra and fluorescence spectra of CaTM-1 (a) and CaTM-2 (b) were measured in a 30 mM 3-(N-morpholino)propanesulfonic acid (MPOS) buffer (pH 7.2) containing 100 mM potassium chloride and 10 mM ethylene glycol tetraacetic acid (EGTA) at 22° C. in the presence of various concentrations of free Ca^2+ ions (0, 0.017, 0.038, 0.065, 0.100, 0.150, 0.225, 0.351, 0.602, 1.35, and 39 μM). […] Thus, it was confirmed that they functioned as a fluorescent probe for measuring calcium ions in a sample by using fluorescence.
# [5] = pKa from pH-dependent absorbance in phosphate buffer
# Procedure: The measurement was performed in a 0.1 M phosphate buffer (pH 9) containing 1% DMSO. pKa was obtained from the absorbance measured in a phosphate buffer (pH 9) by monophasic or biphasic curve fitting.
# [6] = Optical characteristics (absorption, fluorescence, quantum yield) in phosphate buffer, Table 2; conditions: phosphate buffer (pH 9)
# Procedure: In the table, the items attached with the letter a were measured in a phosphate buffer (pH 9), and the item attached with the letter b was measured in a 0.1 M phosphate buffer containing 1% DMSO.
# [7] = tested on: A549 cells; assay: Localization of probes in live A549 cells by fluorescence; format: cell-based; conditions: live A549 cells loaded with the AM ester; hydrolysed in cell by esterase
# Procedure: Among the photographs, (c) to (e) show Rhod-2 localized in the mitochondria. The fluorescence imaging was performed by incubating Rhod-2 AM (3 μM) with Mito Tracker Green FM (0.2 μM). […] The scale bars indicate 10 μm.
# (§2) Change of calcium concentration induced by histamine in a HeLa cell was measured by using CaTM-2-AM or Rhod-2-AM. A HeLa cell loaded with 3 μM CaTM-2-AM ((a) to (d)) or Rhod-2-AM ((e) to (h)) in HBSS was stimulated with histamine (1 μM). Further, localization of CaTM-2-AM (a) and Rhod-2-AM (b) in live A549 cells loaded with each of them was investigated by measuring fluorescence.
# [8] = tested on: HeLa cells; assay: Histamine-induced calcium concentration change in HeLa cells; format: cell-based; conditions: HeLa cells loaded with 3 μM AM ester in HBSS, histamine 1 μM; compared with Rhod-2
# Procedure: FIG. 8b and FIG. 8c show fluorescence images obtained with CaTM-2 at the times indicated with ▾ in FIG. 8d, and FIG. 8f and FIG. 8g show fluorescence images obtained with Rhod-2 at the times indicated with ▾ in FIG. 8h. FIG. 8d and FIG. 8h show fluorescence change in individual cells specified in FIG. 8a and FIG. 8e, respectively. The scale bars indicate 30 μm.
# as §2
# [9] = tested on: neuronal action potential; assay: Continuous calcium ion imaging with patch clamping in a cell membrane adhered state; format: cell-based; conditions: fluorescence method with simultaneous patch clamping
# From the text: The result of continuous imaging of calcium ions performed by the patch clamping method in a cell membrane adhered state is shown in FIG. 11.
# [10] = in ethanol; control for fluorescence standard; cited from earlier work
# [11] = 0.1 M phosphate buffer containing 1% DMSO
compound,measurement,setting,value
Cc1ccccc1C1=C2C=CC(=O)C(F)=C2[Si](C)(C)c2c1ccc(O)c2F [2-Me DFTM],"λmax,fl",[1],598 nm
same,Φfl,[1],0.57
same,"λmax,abs pH 3",[1],465 nm
same,"λmax,abs pH 9",[1],583 nm
C[Si]1(C)C2=C(F)C(=O)C=CC2=C(c2ccccc2C(=O)O)c2ccc(O)c(F)c21 [2-COOH DFTM],"λmax,fl",[1],596 nm
same,Φfl,[1],0.54
same,"λmax,abs pH 9",[1],581 nm
"Cc1ccc(C2=C3C=CC(=O)C=C3[Si](C)(C)c3cc(O)ccc32)c(C)c1 [2,4-DiMe, 2,4-Dimethyl TokyoMagenta]",Φfl,[2],0.41
same,Oxidation potential (V vs SCE),[3],2.08 V vs SCE
CaTM-1,Φfl in 0 μM free [Ca2+] buffer,[4],0.066
same,λabs in 0 μM free [Ca2+] buffer,[4],585 nm
same,λfl in 0 μM free [Ca2+] buffer,[4],603 nm
same,Φfl in 39 μM free [Ca2+] buffer,[4],0.37
same,λabs in 39 μM free [Ca2+] buffer,[4],585 nm
same,λfl in 39 μM free [Ca2+] buffer,[4],603 nm
same,Kd,[4]; read-out: Kd,380 nM
same,Change of absorption spectra with Ca2+ ion concentration,[4],not changed
same,Change of fluorescence intensity with Ca2+ ion concentration,[4],fluorescence intensity was increased with increasing of Ca^2+ ion concentration
2-Me Ge-TM,pKa,[5]; [11],6.7
C[Si]1(C)C2=CC(=O)C=CC2=C(c2ccccc2C(=O)O)c2ccc(O)cc21 [2-COOH TM],"λmax,fl",[1],598 nm
same,Φfl,[1],0.38
same,"λmax,abs pH 9",[1],582 nm
"COc1ccccc1C1=C2C=CC(=O)C=C2[Si](C)(C)c2cc(O)ccc21 [2-OMe, 2-Methoxy TokyoMagenta]",Φfl,[2],0.31
same,Oxidation potential (V vs SCE),[3],1.75 V vs SCE
C[Si]1(C)C2=C(Cl)C(=O)C=CC2=C(c2ccccc2C(=O)O)c2ccc(O)c(Cl)c21 [2-COOH DCTM],"λmax,fl",[1],607 nm
same,Φfl,[1],0.48
same,"λmax,abs pH 9",[1],591 nm
"COc1ccc(OC)c(C2=C3C=CC(=O)C=C3[Si](C)(C)c3cc(O)ccc32)c1 [2,5-DiOMe, 2,5-Dimethoxy TokyoMagenta]",Φfl,[2],0
same,Oxidation potential (V vs SCE),[3],1.26 V vs SCE
CC[Si]1(CC)C2=CC(=O)C=CC2=C(c2ccccc2C)c2ccc(O)cc21 [2-Me DiEtTM],Φfl,[6],0.48
same,λabs,[6],582 nm
same,λfl,[6],601 nm
"Cc1ccc(C)c(C2=C3C=CC(=O)C=C3[Si](C)(C)c3cc(O)ccc32)c1 [2,5-DiMe, 2,5-Dimethyl TokyoMagenta]",Φfl,[2],0.44
same,Oxidation potential (V vs SCE),[3],1.98 V vs SCE
"COc1ccc(C)cc1C1=C2C=CC(=O)C=C2[Si](C)(C)c2cc(O)ccc21 [2-OMe-5-Me, 2-Methoxy-5-methyl TokyoMagenta]",Φfl,[2],0.14
same,Oxidation potential (V vs SCE),[3],1.57 V vs SCE
Cc1ccccc1C1=C2C=CC(=O)C(Cl)=C2[Si](C)(C)c2c1ccc(O)c2Cl [2-Me DCTM],"λmax,fl",[1],607 nm
same,Φfl,[1],0.48
same,"λmax,abs pH 3",[1],477 nm
same,"λmax,abs pH 9",[1],595 nm
Rhod-2 [reference compound],Intracellular localization,[7],accumulated in mitochondria
CaTM-2,Detection of calcium vibration induced by histamine stimulation,[8],more sharply detected the calcium vibration induced by histamine stimulation
same,Φfl in 0 μM free [Ca2+] buffer,[4],0.024
same,λabs in 0 μM free [Ca2+] buffer,[4],597 nm
same,λfl in 0 μM free [Ca2+] buffer,[4],609 nm
same,Φfl in 39 μM free [Ca2+] buffer,[4],0.39
same,λabs in 39 μM free [Ca2+] buffer,[4],597 nm
same,λfl in 39 μM free [Ca2+] buffer,[4],609 nm
same,Kd,[4]; read-out: Kd,200 nM
same,Change of absorption spectra with Ca2+ ion concentration,[4],not changed
same,Change of fluorescence intensity with Ca2+ ion concentration,[4],fluorescence intensity was increased with increasing of Ca^2+ ion concentration
same,Detection of neuronal action potential via transient change of intracellular calcium ion concentration,[9],observed with sufficient sensitivity
same,Intracellular localization,[7],uniformly distributed in the cytoplasm
Calcium TokyoMagenta,Kd,"[4]; probe 1 μM, excitation 550 nm, read-out: Kd value",250 nM
same,Change of fluorescence intensity with Ca2+ ion concentration,[4],Increase of the fluorescence intensity was observed with increase of the calcium ion concentration
"Cc1ccccc1C1=C2C=CC(=O)C=C2[Si](C)(C)c2cc(O)ccc21 [2-Me TM, 2-Me TokyoMagenta]",Φfl,[6],0.42
same,λabs,[6],582 nm
same,λfl,[6],598 nm
same,Φfl,[2],0.42
same,"λmax,fl",[1],598 nm
same,Φfl,[1],0.42
same,"λmax,abs pH 3",[1],472 nm
same,"λmax,abs pH 9",[1],582 nm
same,pKa,[5]; [11],6.8
same,pKa,[5]; from absorbance in phosphate buffer by monophasic or biphasic curve fitting,6.8
same,Oxidation potential (V vs SCE),[3],2.19 V vs SCE
CCN(CC)c1ccc2c(-c3ccccc3C(=O)O)c3ccc(=[N+](CC)CC)cc-3oc2c1.[Cl-] [rhodamine B],Φfl of fluorescence standard,[10],0.65
